Measurements reported in patent US9050298B2, “Method of treating ischemia/reperfusion injuries to a heart with netrin-1” (The Regents of the University of California, priority 2010, dated 2015).
Entries after “also recorded” stand apart in the source; their conditions may differ.

Key:
DCC/ERK1/2/eNOS pathway = assay: Western blot / RT-PCR of DCC, ERK1/2, eNOS signalling in perfused hearts; set-up: species or system mouse; conditions: agent + netrin-1, I/R
Experimental: RT-PCR and Western blot: Total RNA was extracted from mouse hearts using TRIzol (Invitrogen, Carlsbad, Calif.) according to the manufacturer's instructions. Reverse transcription was performed in standard fashion with iScript cDNA Synthesis Kit (Bio-Rad, Hercules, Calif.). PCR was performed using the following primer pairs: PCRs were carried out on an iCycler (Bio-Rad, Hercules, Calif.) including primers generated for GAPDH, ((95° C./2 min), (95° C./25 sec, 57° C./5 sec, 68° C. 5 min)×35, (72° C./10 min)). Western blot analysis was performed as previously published. See Youn et al. (2009) Circ. Res 104:50-59, which is herein incorporated by reference. For no I/R setting, hearts were perfused with KHB or netrin-1 for 120 min. […] These experimental protocols are illustrated in FIG. 7.

cardiac NO production = assay: ESR detection of nitric oxide in Langendorff perfused heart homogenates; set-up: species or system mouse; conditions: agent prior to netrin-1, I/R; vs. untreated I/R controls
Experimental: Langendorff perfusion: The mice were anesthetized with intraperitoneal pentobarbitone (60 mg/kg). Hearts were harvested and rapidly transferred into ice-cold Krebs-Henseleit buffer (KHB). […] NaCl118.0, KCl 4.7, CaCl2 2.5, MgSO4 1.2, KH2PO4 1.2, NaHCO3 25.0, D-Glucose 10 at constant pressure (80±1 mmHg) using a peristaltic pump and feedback system. For no I/R setting, hearts were perfused with KHB or netrin-1 for 120 min. […] These experimental protocols are illustrated in FIG. 7. Electron spin resonance detection of nitric oxide radical: Bioavailable nitric oxide radical (NO) from cells or tissues was detected using electron spin resonance (ESR) as described. See Nguyen et al. (2006) PNAS USA 103:6530-5; and Youn et al. (2009) Circ. Res 104:50-59, which are herein incorporated by reference. […] Gently collected homogenates or cell suspensions were snap-frozen in liquid nitrogen and loaded into a finger Dewar for analysis with an eScan electron spin resonance (ESR) spectrophotometer (Bruker, Freemont, Calif.) at the following settings: center field, 3410; field sweep, 100 G; microwave frequency, 9.73 GHz; microwave power, 13.26 mW; modulation amplitude, 9.82 G; 512 points resolution and receiver gain, 356.

[1] = tested on: I/R-induced cardiac apoptosis; assay: TUNEL apoptosis detection in post-I/R heart sections; set-up: species or system mouse; conditions: agent + netrin-1, I/R
Experimental: Detection of apoptosis: Apoptosis was detected by the apoptosis detection kit (Chemicon International, Inc., Billerica, Mass.) according to the manufacturer's protocol. At the end of the experimental protocols frozen heart sections (12 μm) were fixed with 1% formalin for 10 min at room temperature (RT) and washed twice in PBS, permeabilized with ethanol/acetic acid (2:1) for 5 min at −20° C., washed twice in PBS, and then incubated for >10 sec with the equilibration buffer. Subsequently, the sections were incubated for 1 hr with DIG-conjugated dUTP and TdT enzymes at 37° C., and then for 10 min in the stop buffer at room temperature (RT), and finally washed three times in PBS. The sections were then incubated with FITC-conjugated anti-DIG antibody for 30 min at RT, and washed three times in PBS. Cover-slipped sections were mounted with medium containing 0.5 μg/ml of propidium iodide. […] TUNEL assay was performed to determine whether netrin-1 inhibits apoptotic cell death induced by I/R. Left ventricular sections were incubated with FITC-conjugated anti-DIG antibody and coverslipped with the mounting medium containing 0.5 μg/ml of Propidium Iodide (PI).

[2] = tested on: mouse heart ischemia/reperfusion injury; assay: Langendorff I/R, netrin-1 given post-conditionally at onset of reperfusion, TTC infarct size; conditions: for Infarct size, inhibitor alone: given at reperfusion without netrin-1; for Effect of netrin-1 postconditioning on infarct size, inhibitor co-treatment: inhibitor with netrin-1
Text: FIG. 17 diagrammatically provides the experimental protocols of the isolated C57BL/6J WT, DCC +/+ and +/−mice heart experiments with netrin-1 added post-conditionally. Data included in up to FIG. 16 indicated preventative role of netrin-1 in cardiac I/R injury when netrin-1 was given pre-conditionally ([…]). These new set of experiments are however critical in understanding if netrin-1 exerts cardioprotective effects when delivered as a post-conditioning agent at the onset of reperfusion (i.e. together with PTCA procedure). All hearts were stabilized for 40 min prior to experiments. Control hearts received 20 min of global no-flow ischemia followed by 60 min of reperfusion. Netrin-1 was given at the onset of the reperfusion. The signaling pathway inhibitors were given either alone accordingly or with the netrin-1 treatment. The arrows indicate the time for myocardial infarct sizing with 2,3,5-TTC (TTC) and for protein analysis by Western blot (WB). ▪=global no-flow ischemia.
Langendorff perfused hearts isolated from C57BL/6J wild-type (WT) control mice or DCC +/−mice underwent 20-min of global ischemia followed by 60-min of reperfusion. DCC (deleted in colorectal cancer) is one of the netrin-1 receptors we found to be however specifically involved in netrin-1 preconditioning induced cardioprotection. Netrin-1 was infused postconditionally at the onset of reperfusion at 100 ng/mL concentration with and without U0126, a specific MEK1/2 inhibitor, or 2-Phenyl-4,4,5,5-tetramethylimidazoline-1-oxyl-3-oxide (PTIO), a nitric oxide (NO)-scavenger. Infarct size was determined to evaluate the severity of myocardial injury using TTC staining, and protein kinase activations determined by Western blot analysis.

[3] = tested on: mouse heart ischemia/reperfusion injury; assay: Langendorff perfused mouse heart, global ischemia/reperfusion, infarct size by TTC (netrin-1 pre-perfusion); conditions: agent 30 min prior to netrin-1 (100 ng/ml, 45 min), then I/R
Experimental: Langendorff perfusion: The mice were anesthetized with intraperitoneal pentobarbitone (60 mg/kg). Hearts were harvested and rapidly transferred into ice-cold Krebs-Henseleit buffer (KHB). […] NaCl118.0, KCl 4.7, CaCl2 2.5, MgSO4 1.2, KH2PO4 1.2, NaHCO3 25.0, D-Glucose 10 at constant pressure (80±1 mmHg) using a peristaltic pump and feedback system. For no I/R setting, hearts were perfused with KHB or netrin-1 for 120 min. […] These experimental protocols are illustrated in FIG. 7. Infarct size analysis: […] The heart slices were then digitally photographed for planimetry using NIH Image 1.62. Infarct size is expressed as an infarct-to-risk zone ratio (the risk zone is the whole ventricular volume in this global ischemic model).

[4] = tested on: cardiac superoxide production; assay: Superoxide measurement with ESR in heart homogenates after Langendorff I/R; set-up: species or system mouse; conditions: siRNA by tail vein, 2 injections
Experimental: Langendorff perfusion: Animals were initially anesthetized with isoflurane. Hearts from the animals were rapidly removed and transferred to ice cold modified Krebs-Henseleit buffer (KHB), consisting of (in mmol/L): NaCl118.0, KCl 4.7, CaCl2 2.5, MgSO4 1.2, Kh2PO4 1.2, NaHCO3 25.0, Glucose 10, pH 7.35. […] While under perfusion, the heart is kept in a 37° C. chamber. For no I/R, hearts were perfused with KHB for 120 min. […] These treatment protocols are illustrated in FIG. 11A. […] At the end of the Langendorff experiment, hearts were removed from the perfusion apparatus and immediately transferred onto ice awaiting homogenization. […] For Western blot analysis, the supernatant from the homogenate centrifuged at 13,000 rpm for 15 min at 4° C. was used. Superoxide measurements with electron spin resonance (ESR): Superoxide production was measured from heart homogenates using ESR as previously described. Briefly, heart homogenate (10 μg) was mixed in a spin trap solution (CMH, 0.5 mmol/L), loaded into a glass capillary (Fisher Scientific) in the presence or absence of L-NAME (100 μmol/L), and assayed for superoxide using a Bio-Spin ESR spectorphotometer (Bruker) at the following settings: center field 3476; […]; frequency 9.75 GHz; microwave power 21.02 mW; modulation amplitude 2.47 G; 512 points resolution; receiver gain 1000.

NOX4 = assay: Western blot of NOX isoforms from whole heart homogenate; set-up: species or system mouse; conditions: NOX4 siRNA in vivo
Text: Preparation of heart tissue for biochemical assays: At the end of the Langendorff experiment, hearts were removed from the perfusion apparatus and immediately transferred onto ice awaiting homogenization. For superoxide measurement and Western blot analysis, hearts were homogenized with ice cold homogenization buffer (Tris 50 mmol/L, EDTA 0.1 mmol/L, EGTA 0.1 mmol/L, protease inhibitor cocktail, pH 7.4) on ice using a glass homogenizer. For Western blot analysis, the supernatant from the homogenate centrifuged at 13,000 rpm for 15 min at 4° C. was used.
Western blot: Western blotting was performed as per standard protocols. Primary antibody for NOX4 (Abcam, Cambridge, Mass.) was used at a dilution of 1:1000. Primary antibody for actin (Sigma-Aldrich, St. Louis, Mo.) was used at a dilution of 1:3000. Secondary antibody conjugated to HRP (Bio-Rad, Hercules, Calif.) was used at a dilution of 1:2000 for NOX4, and 1:10000 for actin.

heart mitochondria = assay: Mitochondrial swelling assay on mitochondria from perfused hearts; set-up: species or system mouse; conditions: isolated mitochondria, absorbance 540 nm
Experimental: Mitochondria isolation: Heart tissue was rinsed twice in ice cold PBS immediately after the end of the Langendorff experiment. The tissue was then homogenized in a pre-chilled glass homogenizer using isolation buffer I (sucrose 250 mM, EGTA 1 mM, HEPES10 mM, and Tris-HCl 10 mM, pH 7.4, 1 ml buffer/0.1 g tissue) on ice. The homogenate was then centrifuged at 800 g for 7 min at 4 C. The supernatant was then transferred to a new tube and centrifuged at 4000 g for 15 min at 4° C. The pellet was rinsed using 1 ml of isolation buffer II (sucrose 250 mM, HEPES 10 mM, Tris-HCl 10 mM, pH 7.4), then centrifuged again at 4000 g for 15 min at 4° C. Further purification was performed by resuspending the pellet with 3 ml of a 19% percoll solution, then layering this on top of a double layer of 30% and 60% percoll solution in a centrifugation tube. The entire tube was spun for 60 min at 1,000 g. The mitochondria layer in the tube was carefully removed. Percoll was washed from the sample by alternating centrifugation and resuspension with isolation buffer II. The final pellet was resuspended in isolation buffer II.
Mitochondrial swelling assay: 30 μg of freshly isolated mitochondria were mixed in a buffer containing 250 mM sucrose and 10 mM Tris (pH 7.4). The mixture was then incubated with 5 mM succinate for 1 minute at room temperature, then with 250 μM of CaCl2. Absorbance at 540 nm was measured immediately for 20 min at 1 minute intervals. Swelling was measured as a decrease in absorbance over time.

[5] = tested on: mouse heart ischemia/reperfusion injury; assay: Langendorff I/R, TTC infarct size, NOX4 siRNA or sepiapterin; conditions: TTC staining
NOS = assay: L-NAME sensitive superoxide production (NOS coupling state); set-up: species or system mouse; conditions: superoxide with and without L-NAME, I/R hearts
Experimental: Superoxide measurements with electron spin resonance (ESR): Superoxide production was measured from heart homogenates using ESR as previously described. Briefly, heart homogenate (10 μg) was mixed in a spin trap solution (CMH, 0.5 mmol/L), loaded into a glass capillary (Fisher Scientific) in the presence or absence of L-NAME (100 μmol/L), and assayed for superoxide using a Bio-Spin ESR spectorphotometer (Bruker) at the following settings: center field 3476; […]; frequency 9.75 GHz; microwave power 21.02 mW; modulation amplitude 2.47 G; 512 points resolution; receiver gain 1000. Netrin-1 attenuates I/R induced NOS uncoupling: To assess the coupling state of NOS under I/R and netrin-1-infused I/R conditions, superoxide production was measured with and without the addition of L-NAME, a general inhibitor of NOS. Under normal conditions when NOS is coupled, it produces nitric oxide (NO). Therefore, the addition of L-NAME will reduce the level of NO, resulting in an increase in measured superoxide production. On the other hand, if NOS is uncoupled and is producing superoxide, the addition of L-NAME will reduce measured superoxide. […] Using this method, the coupling state of whole heart homogenate from each condition was measured (n=5 each condition), with the results shown in FIG. 13.

[6] = tested on: infarct size post I/R insult; conditions: nitrite supplementation; cited from earlier work
[7] = tested on: Bovine aortic endothelial cells (BAEC); assay: DCC expression in NO donor-treated BAECs; assay type: cell-based; conditions: NO donor 1 mmol/L, 2 hr
isolated cardiomyocytes = assay: DCC expression in NO donor-treated isolated cardiomyocytes; assay type: cell-based, mouse; conditions: NO donor 1 mmol/L, 2 hr
Experimental: NaCl 130, KCl 5.4, MgSO4 1, NaH2PO4 0.6, D-Glucose 10, HEPES 10, which was continuously bubbled with 95% O2+5% CO2. The enzymatic digestion was commenced by adding collagenase type II (Worthington Biochemical Corp., Lakewood, N.J., 0.56 mg/ml each) to the perfusion buffer and continued for 20 min. The heart was cut down and placed in the Petri dish with perfusion solution. The digested ventricular tissues were cut into 2-3 mm pieces and gently aspirated with a transfer pipette to facilitate cell dissociation. The myocytes were allowed to sediment by gravity for 8-10 min in the 15-ml Falcon tubes.

| Compound | Netrin-1 stimulated NO production in hearts pre-perfused with the agent (cardiac NO production) | Infarct size, inhibitor alone [2] | Effect of netrin-1 postconditioning on infarct size, inhibitor co-treatment [2] | Mitochondrial function (swelling) in I/R hearts (heart mitochondria) | Infarct size after I/R [5] | NOS coupling state under I/R (NOS) | further results |
| --- | --- | --- | --- | --- | --- | --- | --- |
| N#CC(=C(N)Sc1ccccc1N)C(C#N)=C(N)Sc1ccccc1N [U0126, 1,4-diamino-2,3-dicyano-1,4-bis (2-aminophenylthio)butadiene] | 1.12±0.15 fold | no effect | abolished |  |  |  | Netrin-1 increase in phosphorylated ERK1/2 and eNOSs1177, agent prior to netrin-1 (DCC/ERK1/2/eNOS pathway): inhibited; Netrin-1 restoration of DCC protein expression, agent prior to netrin-1 (DCC/ERK1/2/eNOS pathway): abolished; AKT phosphorylation after the entire I/R procedure (DCC/ERK1/2/eNOS pathway; data not shown): unaffected; TUNEL positive cells, agent prior to netrin-1 [1]: 19.24±2.4%; Infarct size / cardioprotection in netrin-1-perfused hearts pre-perfused with the agent [3]: 41.3±4.1% |
| CC1(C)N([O])C(c2ccccc2)=[N+]([O-])C1(C)C [PTIO, 2-phenyl-4,4,5,5-tetramethylimidazoline-1-oxyl 3-oxide] | attenuated | no effect | abolished |  |  |  |  |
| NOX4 siRNA: in vivo grade siRNA against NOX4 (SEQ ID NO:19, 20) delivered with nanoparticle transfection kit (chain 1 CAUGCUGCUGCUGUUGCAUGUUUCA; chain 2 CCCUCUGAUGUAAUGGAACUCCGUA; nanoparticle delivery, further chemistry not given here) |  |  |  | marked improvement; also recorded: improved | markedly reduced | functional NOS; also recorded: restored | superoxide levels in NOX4 siRNA treated hearts compared to controls [4]: increased; NOX4 protein expression in hearts of siRNA treated mice (NOX4): successful silencing |
| O=NO [Nitrite] |  |  |  |  |  |  | reduction in infarct size post I/R insult [6]: 48% |
| CNCCCCCCN(C)/[N+]([O-])=N/O [MAMANOATE] |  |  |  |  |  |  | DCC protein expression in cultured ECs [7]: increased DCC protein expression; DCC protein expression in cardiomyocytes (isolated cardiomyocytes): increased DCC protein expression |
| C[C@H](O)C(=O)C1=Nc2c(nc(N)[nH]c2=O)NC1 [sepiapterin] |  |  |  | improving mitochondria function; also recorded: improving mitochondrial function | effective in reducing infarct size | effective in recoupling NOS; also recorded: recouples NOS | Mitochondrial function (swelling) in I/R hearts (heart mitochondria; listed as Sepiapterin): restored mitochondria function; also recorded: effectively diminished mitochondrial dysfunction |
